In US7115572B2, “Indolicidin analogs with anti-microbial activity” (Council of Scientific and Industrial Research, priority 2001, dated 2006):
Like-named read-outs stand apart in the source and are kept apart here. Marks after values point to notes of the source that are not given here. No end group written: not given here.

Experiments:
Format in all cases: cell-based
Staphylococcus aureus = system: Staphylococcus aureus
Description: (§1) In still another embodiment of the present invention, the antimicrobial activities of the peptides are determined in liquid medium by a modified method described by Lehrer et al. (10) In still another embodiment of the present invention, all incubations are carried out at 37° C. Microbial growth is determined by measuring the increase in OD600. The lowest concentration of the peptide that result in complete inhibition of growth is recorded as its minimal inhibitory concentration (MIC). In still another embodiment of the present invention, the microorganisms used are Escherichia coli ([…]) and Staphylococcus aureus. A peptide concentration in stock solution is determined by amino acid analysis.

[1] = system: Escherichia coli (W160.37)
Description: as §1

rat erythrocytes = assay: Hemolytic activity on freshly isolated rat erythrocytes
Description: In still another embodiment of the present invention, hemolytic activity of the peptides is assessed on freshly isolated rat erythrocytes.
In still another embodiment of the present invention, heparinized rat blood in saline is initially centrifuged at 1000 rpm for 10 min to remove the buffy coat.
In still another embodiment of the present invention, the erythrocyte suspension is further washed thrice with 5 mM Hepes, pH 7.4 containing 150 mM NaCl.
In still another embodiment of the present invention, aliquots of cell suspension (˜10^6 cells) in eppendorf tubes are incubated with the peptide in duplicates at 37° C. for 30 min with gentle mixing.
In still another embodiment of the present invention, the tubes are then centrifuged and the absorbance of the supernatants is measured at 540 nm. The lysis obtained with 1% triton×100 is taken as 100%.

[2] = lowest concentration giving complete inhibition of growth, 37° C., OD600

S.aureus (MIC μg/ml) (Staphylococcus aureus)	E.CO// (MIC μg/ml) ([1]; W160.37)	Compound	% Hemolytic activity at 100 μg/ml (rat erythrocytes; red cells of rat, 100)	S.aureus (MIC μg/ml) (Staphylococcus aureus; [2])	E.CO// (MIC μg/ml) [1, 2]	% Hemolytic activity at 100 μg/ml (rat erythrocytes; 100 μg/ml peptide, rat erythrocytes, 37° C., 30 min, 1% triton x100 = 100%)
10 µg/mL	20 µg/mL	ILPLKLPWLPLRR-NH2 [IL8, ILPLKLPWLPLRR-amide]	0%			
10 µg/mL	15 µg/mL	ILPWKLPLLPLRR-NH2 [IL4, ILPWKLPLLPLRR-amide]	0%			
5 µg/mL	20 µg/mL	ILPLKLPLLPWRR-NH2 [IL11, ILPLKLPLLPWRR-amide]	0%			
		CC[C@H](C)[C@H](N)C(=O)N[C@@H](CC(C)C)C(=O)N1CCC[C@H]1C(=O)N[C@@H](Cc1c[nH]c2ccccc12)C(=O)N[C@@H](CCCCN)C(=O)N[C@@H](Cc1c[nH]c2ccccc12)C(=O)N1CCC[C@H]1C(=O)N[C@@H](Cc1c[nH]c2ccccc12)C(=O)N[C@@H](Cc1c[nH]c2ccccc12)C(=O)N1CCC[C@H]1C(=O)N[C@@H](Cc1c[nH]c2ccccc12)C(=O)N[C@@H](CCCNC(=N)N)C(=O)N[C@@H](CCCNC(=N)N)C(N)=O [IL, ILPWKWPWWPWRR-amide, reference compound]		2 µg/mL	5 µg/mL	100^a %
